This assay concerns P388 leukemia ip, CD2F1 mice, survival T/C. Kind of assay: NCI In Vivo Anticancer Drug Screen. Data for tumor model P388 Leukemia (intraperitoneal) in CD2F1 (CDF1) mice. The conditions noted are these: endpoint: median survival time, higher = longer survival. The method, boiled down:
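Mice carrying the transplanted tumor received test compound or vehicle. Survival was recorded in each group, and the value is the treated-group measurement divided by that of the vehicle-treated control group.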

Where [1] appears, read: dose: 50.0 mg/kg/injection, schedule: Q01DX009 (ip), vehicle: saline with Tween-80.
Where [2] appears, read: dose: 100.0 mg/kg/injection, schedule: Q01DX009 (ip), vehicle: saline with Tween-80.
The mark [3] stands for this setting: dose: 100.0 mg/kg/injection, schedule: Q04DX003 (ip), vehicle: saline with Tween-80.
Setting [4] is: dose: 200.0 mg/kg/injection, schedule: Q04DX003 (ip), vehicle: saline with Tween-80.
[5] abbreviates: dose: 6.25 mg/kg/injection, schedule: Q01DX005 (ip), vehicle: saline with Tween-80.
Setting [6] is: dose: 12.5 mg/kg/injection, schedule: Q01DX005 (ip), vehicle: saline with Tween-80.
Setting [7] is: dose: 50.0 mg/kg/injection, schedule: Q01DX009 (ip), vehicle: saline.
Setting [8] is: dose: 100.0 mg/kg/injection, schedule: Q01DX009 (ip), vehicle: saline.
[9] abbreviates: dose: 200.0 mg/kg/injection, schedule: Q01DX009 (ip), vehicle: saline.
Where [10] appears, read: dose: 50.0 mg/kg/injection, schedule: Q01DX005 (ip), vehicle: saline with Tween-80.
The mark [11] stands for this setting: dose: 50.0 mg/kg/injection, schedule: Q01DX005 (ip), vehicle: Klucel (hydroxypropylcellulose) (HPC).
Where [12] appears, read: dose: 100.0 mg/kg/injection, schedule: Q01DX005 (ip), vehicle: Klucel (hydroxypropylcellulose) (HPC).
The mark [13] stands for this setting: dose: 200.0 mg/kg/injection, schedule: Q01DX005 (ip), vehicle: Klucel (hydroxypropylcellulose) (HPC).
Setting [14] is: dose: 400.0 mg/kg/injection, schedule: Q04DX003 (ip), vehicle: saline with Tween-80.
Setting [15] is: dose: 200.0 mg/kg/injection, schedule: Q01DX009 (ip), vehicle: saline with Tween-80.
Where [16] appears, read: dose: 12.5 mg/kg/injection, schedule: Q04DX002 (ip), vehicle: saline with Tween-80.
[17] abbreviates: dose: 400.0 mg/kg/injection, schedule: Q01DX009 (ip), vehicle: saline with Tween-80.

Structures are written as SMILES. Where “and” joins values, the source holds several entries; their conditions need not be identical. Identical values can stand only once. Inconclusive results and toxic doses are left out.

Turning to `CSc1nc(Cl)c(Br)c(Sc2nc(N)nc3nc[nH]c23)n1`, the T/C reads like this: under setting [1], 122 % of control; under setting [2], 109 % of control; under setting [3], 118 % of control; under setting [4], 150 % of control.

For `N=c1nc(N)ncn1-c1ccccc1`, the T/C by setting is: (dose: 1.56 mg/kg/injection, schedule: Q01DX005 (ip), vehicle: saline with Tween-80) 99 % of control and 102 % of control; (dose: 3.13 mg/kg/injection, schedule: Q01DX005 (ip), vehicle: saline with Tween-80) 103 % of control and 104 % of control; under setting [5], 99 % of control and 102 % of control; under setting [6], 102 % of control and 104 % of control and 108 % of control.

As for `CSC(=S)N/N=C(/C)c1ccco1`, the T/C was 105 % of control under setting [1] and 95 % of control under setting [2].

For the compound `Cc1cc(NC(=O)Nc2ccc(F)cc2)no1`, the T/C runs as follows: (dose: 60.0 mg/kg/injection, schedule: Q01DX005 (ip), vehicle: saline with Tween-80) 94 % of control; (dose: 120.0 mg/kg/injection, schedule: Q01DX005 (ip), vehicle: saline with Tween-80) 93 % of control; (dose: 240.0 mg/kg/injection, schedule: Q01DX005 (ip), vehicle: saline with Tween-80) 96 % of control.

Take `CC/C(=C(/CC)c1ccc(OC(=O)N(CCCl)CCCl)cc1)c1ccc(OC(=O)N(CCCl)CCCl)cc1`: the T/C under setting [7] is 97 % of control, the T/C under setting [8] is 99 % of control and the T/C under setting [9] is 99 % of control.

Take `CCCC(=O)Oc1c(OC(=O)CCC)c(OC(=O)CCC)c(OC(=O)CCC)c(OC(=O)CCC)c1OC(=O)CCC`: the T/C reads like this: (dose: 100.0 mg/kg/injection, schedule: Q04DX002 (ip), vehicle: saline with Tween-80) 95 % of control; (dose: 200.0 mg/kg/injection, schedule: Q04DX002 (ip), vehicle: saline with Tween-80) 99 % of control; (dose: 400.0 mg/kg/injection, schedule: Q04DX002 (ip), vehicle: saline with Tween-80) 90 % of control.

As to `Cc1cc(O)ccc1O`, the T/C reads like this: under setting [8], 100 % of control and 116 % of control; under setting [9], 112 % of control and 117 % of control.

In the case of `Cn1c(-c2ccccc2)c2c(c1-c1ccccc1)C(=O)c1c(c(-c3ccccc3)n(C)c1-c1ccccc1)C2=O`, the T/C is 94 % of control (dose: 50.0 mg/kg/injection, schedule: Q01DX009 (ip), vehicle: Klucel (hydroxypropylcellulose) (HPC)); 92 % of control (dose: 100.0 mg/kg/injection, schedule: Q01DX009 (ip), vehicle: Klucel (hydroxypropylcellulose) (HPC)); 97 % of control (dose: 200.0 mg/kg/injection, schedule: Q01DX009 (ip), vehicle: Klucel (hydroxypropylcellulose) (HPC)).

In the case of `CC(C)c1nnc2cc3oc4ccccc4c3cc2c1N`, the T/C is 100 % of control under setting [5]; 96 % of control under setting [6]; 106 % of control (dose: 25.0 mg/kg/injection, schedule: Q01DX005 (ip), vehicle: saline with Tween-80); 106 % of control under setting [10].

Regarding `CCC(=O)OC1C(OC2C(C)C(OC3CC(C)(OC)C(O)C(C)O3)C(C)C(=O)OC(CC)C(C)(O)C(O)C(C)C(=O)C(C)CC2(C)O)OC(C)CC1N(C)C` (stereo not drawn), the T/C runs as follows: under setting [7], 105 % of control; under setting [8], 97 % of control; under setting [9], 92 % of control.

`COc1ccc(CSCC(NC(=O)OC(C)(C)C)C(=O)O)cc1` (stereo not drawn): the T/C under setting [11] is 105 % of control, the T/C under setting [12] is 97 % of control and the T/C under setting [13] is 100 % of control.

As for `CC1(Cl)CC(C)(/C=C/Cl)C(Br)CC1Cl` (stereo not drawn), the T/C is 91 % of control (dose: 41.5 mg/kg/injection, schedule: Q01DX005 (ip), vehicle: Klucel (hydroxypropylcellulose) (HPC)); 91 % of control (dose: 83.0 mg/kg/injection, schedule: Q01DX005 (ip), vehicle: Klucel (hydroxypropylcellulose) (HPC)); 100 % of control (dose: 166.0 mg/kg/injection, schedule: Q01DX005 (ip), vehicle: Klucel (hydroxypropylcellulose) (HPC)).

In the case of `COC(=O)C12CCc3cc(OC)ccc3C1=CC(=O)C2` (stereo not drawn), the T/C is 101 % of control (dose: 50.0 mg/kg/injection, schedule: Q04DX003 (ip), vehicle: saline with Tween-80); 105 % of control under setting [3]; 100 % of control under setting [4]; 100 % of control under setting [14].

For `CNC(=O)OCc1c(COC(=O)NC)c(-c2cccc(F)c2F)n2c1CCC2`, the T/C reads like this: (dose: 12.5 mg/kg/injection, schedule: Q01DX009 (ip), vehicle: distilled water + Tween-80) 171 % of control; (dose: 25.0 mg/kg/injection, schedule: Q01DX009 (ip), vehicle: distilled water + Tween-80) 156 % of control and 159 % of control.

Regarding `CCOC(=O)N1C=CC(C(=O)OC)=CC=C1C(=O)OC`, the T/C was 98 % of control under setting [11], 95 % of control under setting [12] and 94 % of control under setting [13].

In the case of `CC(=O)c1c[nH]cc1CO`, the T/C was 107 % of control under setting [1], 100 % of control under setting [2] and 98 % of control under setting [15].

In the case of `c1ccc(C2SCCN2c2ccccc2)cc1` (stereo not drawn), the T/C is, setting by setting: under setting [7], 91 % of control; under setting [8], 90 % of control; under setting [9], 89 % of control.

`Cc1cnc(C#N)c(Cl)n1`: the T/C is, setting by setting: under setting [2], 100 % of control; under setting [3], 110 % of control; under setting [15], 115 % of control; under setting [4], 110 % of control; under setting [14], 100 % of control.

Regarding `Clc1ccnc2ccc3ncccc3c12`, the T/C reads like this: (dose: 3.12 mg/kg/injection, schedule: Q04DX002 (ip), vehicle: saline with Tween-80) 113 % of control; (dose: 6.25 mg/kg/injection, schedule: Q04DX002 (ip), vehicle: saline with Tween-80) 103 % of control; under setting [16], 100 % of control.

`CCOC(=O)N1N=C(c2ccccc2)OC2(N3CCOCC3)CCC(C(C)(C)C)CC12` (stereo not drawn): the T/C reads like this: under setting [11], 100 % of control; under setting [12], 101 % of control; under setting [13], 97 % of control.

In the case of `Cc1cc(=O)oc2nc(-c3ccccc3)[nH]c(=O)c12`, the T/C is, setting by setting: (dose: 60.0 mg/kg/injection, schedule: Q01DX005 (ip), vehicle: Klucel (hydroxypropylcellulose) (HPC)) 86 % of control; (dose: 120.0 mg/kg/injection, schedule: Q01DX005 (ip), vehicle: Klucel (hydroxypropylcellulose) (HPC)) 100 % of control; (dose: 240.0 mg/kg/injection, schedule: Q01DX005 (ip), vehicle: Klucel (hydroxypropylcellulose) (HPC)) 91 % of control.

Regarding `COc1cc(C2C(C(=O)OC/C=C/c3ccc4c(c3)OCO4)C(c3cc(OC)c(OC)c(OC)c3)C2C(=O)OC/C=C/c2ccc3c(c2)OCO3)cc(OC)c1OC` (stereo not drawn), the T/C by setting is: under setting [1], 87 % of control; under setting [2], 93 % of control; under setting [15], 95 % of control; under setting [17], 102 % of control.

As to `CCCCn1nnc2cc(-c3c(N)nc(N)nc3CC)ccc21`, the T/C was 87 % of control under setting [11], 89 % of control under setting [12] and 89 % of control under setting [13].

`CC(=O)OCC1OC2OC(C)(C)OC2C1O` (stereo not drawn): the T/C by setting is: (dose: 50.0 mg/kg/injection, schedule: Q01DX005 (ip), vehicle: saline) 96 % of control; (dose: 100.0 mg/kg/injection, schedule: Q01DX005 (ip), vehicle: saline) 100 % of control; (dose: 200.0 mg/kg/injection, schedule: Q01DX005 (ip), vehicle: saline) 105 % of control.

For `O=C(Nc1cccc(Cl)c1)ON1C(=O)C2C(C1=O)C1(Cl)C(Cl)C(Cl)C2(Cl)C1(Cl)Cl` (stereo not drawn), the T/C by setting is: under setting [1], 103 % of control and 110 % of control; under setting [2], 110 % of control and 112 % of control and 120 % of control; under setting [15], 106 % of control and 124 % of control; under setting [17], 108 % of control and 110 % of control.

In the case of `COc1ccc2c(ccc3c(=O)c4c([nH]c32)CCC4)n1`, the T/C is, setting by setting: under setting [16], 111 % of control; (dose: 25.0 mg/kg/injection, schedule: Q04DX002 (ip), vehicle: saline with Tween-80) 114 % of control; (dose: 50.0 mg/kg/injection, schedule: Q04DX002 (ip), vehicle: saline with Tween-80) 95 % of control.

As for `C=CC(C)(O)CS(=O)c1ccccc1` (stereo not drawn), the T/C is, setting by setting: (dose: 100.0 mg/kg/injection, schedule: Q04DX003 (ip), vehicle: saline) 100 % of control; (dose: 200.0 mg/kg/injection, schedule: Q04DX003 (ip), vehicle: saline) 101 % of control; (dose: 400.0 mg/kg/injection, schedule: Q04DX003 (ip), vehicle: saline) 108 % of control.

In the case of `N#CC(C(=O)C(N)=O)c1nc2ccccc2s1` (stereo not drawn), the T/C was 105 % of control under setting [10] and 101 % of control (dose: 100.0 mg/kg/injection, schedule: Q01DX005 (ip), vehicle: saline with Tween-80).

The values are drawn from PubChem BioAssay AID330 (DTP/NCI, 2004).
